Test results taken from patent US8288552B2, “Dihydropyridone amidesas P2X7 modulators” (Roche Palo Alto LLC, priority 2008, dated 2012).

molecular target: T1, P2X7 (UniProt Q99572); test: P2X7 pKi of Table 1; type: cell-based
T1 sequence (Q99572 1-595): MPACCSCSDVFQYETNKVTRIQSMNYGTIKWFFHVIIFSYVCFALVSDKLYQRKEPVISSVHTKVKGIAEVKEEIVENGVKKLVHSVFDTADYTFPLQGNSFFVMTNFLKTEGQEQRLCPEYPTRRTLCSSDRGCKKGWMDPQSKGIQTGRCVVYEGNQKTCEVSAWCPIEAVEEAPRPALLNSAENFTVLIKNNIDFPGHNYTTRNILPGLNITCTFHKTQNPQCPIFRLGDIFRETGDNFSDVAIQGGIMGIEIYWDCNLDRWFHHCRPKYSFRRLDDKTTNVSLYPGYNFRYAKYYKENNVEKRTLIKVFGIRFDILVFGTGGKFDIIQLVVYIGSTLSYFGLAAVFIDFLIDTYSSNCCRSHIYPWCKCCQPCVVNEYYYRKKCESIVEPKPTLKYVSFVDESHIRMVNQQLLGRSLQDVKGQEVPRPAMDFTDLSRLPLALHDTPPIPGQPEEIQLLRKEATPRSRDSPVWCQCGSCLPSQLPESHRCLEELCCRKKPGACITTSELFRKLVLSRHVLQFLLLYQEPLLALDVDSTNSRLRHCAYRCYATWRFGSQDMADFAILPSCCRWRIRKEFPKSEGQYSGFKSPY
Description: Intracellular Calcium Flux (FLIPR) Assay
Compound and Reagent Preparation
Stock solutions of compounds were prepared from powders as a 10 mM DMSO stock solution. These solutions were stored at RT during the two week period of these experiments to prevent freeze-thaw of the DMSO stocks. The DMSO stocks were added to the appropriate assay buffer at a concentration of 10 μM, and then diluted serially to the final concentrations that were tested. […] The aqueous solutions of compounds as well as ATP (Sigma A7699) and BzATP (Sigma B6396) were prepared fresh for each day of experiment.
1321N1 cells stably expressing the full length human P2X7 gene (1321N1-hP2X7) and HEK293 cells stably expressing the full length rat P2X7 gene (HEK293-rP2X7) were obtained from the Roche Cell Culture Facility. 1321N1-hP2X7 cells were grown in Dulbecco's Modified Eagle's Medium (DMEM) high glucose supplemented with 10% FBS and 250 μg/mL G418. HEK293-rP2X7 cells were grown in DMEM/F-12 supplemented with 10% FBS, 1 mM CaCl2, 2 mM MgCl2, 2 mM L-Glutamine and 500 μg/ml G418. Cells were split such that they never became >70% confluent.
Intracellular Calcium Flux (FLIPR)
On the day prior to the experiment, 1321N1-hP2X7 or HEK293-rP2X7 cells were released into suspension with calcium-free PBS+Versene and washed by centrifugation with calcium-free PBS to remove the Versene. Cells were resuspended in growth medium at a density of 2.5×10^5 cells/mL and seeded into black walled, clear bottom 96 well plates (50,000 cells/well) approximately 18 hr prior to intracellular calcium flux experiments.
On the day of the experiment, plates were washed with FLIPR buffer (calcium- and magnesium-free Hank's Balanced Salt Solution (HBSS) supplemented with 10 mM Hepes, 2.5 mM probenecid and 2 mM calcium chloride) using a BIO-TEK 96 channel plate washer and incubated with […] fluo-3 dye at 37° C. for one hr. The dye was then removed by plate washing and the cells were allowed to equilibrate for 20 min at room temperature with antagonist or vehicle (FLIPR buffer). Agonist (100 μM BzATP final concentration for hP2X7; 5 μM BzATP final concentration or rP2X7) was added online with the FLIPR and fluorescence measurements made at 1 sec intervals for 60 sec followed by 3 sec intervals for a further 4 min (5 min total). A final addition of 5 μM ionomycin was made and the maximal BzATP-evoked fluorescence normalized to the maximal ionomycin-evoked fluorescence.

Row | pKi | Compound
1 | 7.4925 | COc1cc(Br)c(NC(=O)C2=CNC(=O)CC2c2ccccc2)cc1OC (centres unmarked) [Compound 1, 6-Oxo-4-phenyl-1,4,5,6-tetrahydro-pyridine-3-carboxylic acid(2-bromo-4,5-dimethoxy-phenyl)-amide]
2 | 6.595 | COc1cc(NC(=O)C2=CNC(=O)CC2c2ccccc2)c(Br)cc1C (centres unmarked) [Compound 2, 6-Oxo-4-phenyl-1,4,5,6-tetrahydro-pyridine-3-carboxylic acid(2-bromo-5-methoxy-4-methyl-phenyl)-amide]
3 | 5.95 | COc1cc(NC(=O)C2=CNC(=O)CC2c2ccccc2)c(Br)cc1Cl (centres unmarked) [Compound 3, 6-Oxo-4-phenyl-1,4,5,6-tetrahydro-pyridine-3-carboxylic acid(2-bromo-4-chloro-5-methoxy-phenyl)-]
4 | 6.6 | COc1cc(NC(=O)C2=CNC(=O)CC2c2ccc(F)cc2)c(Br)cc1C (centres unmarked) [Compound 4, 4-(4-Fluoro-phenyl)-6-oxo-1,4,5,6-tetrahydro-pyridine-3-carboxylic acid(2-bromo-5-methoxy-4-methyl-phenyl)-amide]
5 | 6.726 | COc1cc(NC(=O)C2=CNC(=O)CC2c2cccc(F)c2)c(Br)cc1C (centres unmarked) [Compound 5, 4-(3-Fluoro-phenyl)-6-oxo-1,4,5,6-tetrahydro-pyridine-3-carboxylic acid(2-bromo-5-methoxy-4-methyl-phenyl)-amide]
6 | 6.166 | COc1cc(NC(=O)C2=CNC(=O)CC2c2ccc(F)cc2)c(Br)cc1Cl (centres unmarked) [Compound 6, 4-(4-Fluoro-phenyl)-6-oxo-1,4,5,6-tetrahydro-pyridine-3-carboxylic acid(2-bromo-4-chloro-5-methoxy-phenyl)-amide]
7 | 7.463 | COc1cc(Br)c(NC(=O)C2=CNC(=O)CC2c2ccc(F)cc2)cc1OC (centres unmarked) [Compound 7, 4-(4-Fluoro-phenyl)-6-oxo-1,4,5,6-tetrahydro-pyridine-3-carboxylic acid(2-bromo-4,5-dimethoxy-phenyl)-amide]
8 | 6.766 | COc1cc(NC(=O)C2=CNC(=O)CC2c2cccc(F)c2)c(Br)cc1Cl (centres unmarked) [Compound 9, 4-(3-Fluoro-phenyl)-6-oxo-1,4,5,6-tetrahydro-pyridine-3-carboxylic acid(2-bromo-4-chloro-5-methoxy-phenyl)-amide]
9 | 5.543 | COc1cc(NC(=O)C2=CNC(=O)CC2c2ccc(F)cc2)ccc1Cl (centres unmarked) [Compound 10, 4-(4-Fluoro-phenyl)-6-oxo-1,4,5,6-tetrahydro-pyridine-3-carboxylic acid(4-chloro-3-methoxy-phenyl)-amide]
10 | 6.03 | COc1cc(NC(=O)C2=CNC(=O)CC2c2ccc(F)cc2)ccc1C (centres unmarked) [Compound 11, 4-(4-Fluoro-phenyl)-6-oxo-1,4,5,6-tetrahydro-pyridine-3 carboxylic acid(3-methoxy-4-methyl-phenyl)-amide]
11 | 6.155 | COc1cc(Br)c(NC(=O)C2=CNC(=O)C[C@@H]2c2ccccc2)cc1OC [Compound 12, (R)-6-Oxo-4-phenyl-1,4,5,6-tetrahydro-pyridine-3-carboxylic acid(2-bromo-4,5-dimethoxy-phenyl)-amide]
12 | 7.455 | COc1cc(Br)c(NC(=O)C2=CNC(=O)C[C@H]2c2ccccc2)cc1OC [Compound 13, (S)-6-Oxo-4-phenyl-1,4,5,6-tetrahydro-pyridine-3-carboxylic acid(2-bromo-4,5-dimethoxy-phenyl)-amide]
13 | 6.535 | Cc1cc(C)cc(NC(=O)C2=CNC(=O)CC2c2ccc(F)cc2)c1 (centres unmarked) [Compound 14, 4-(4-Fluoro-phenyl)-6-oxo-1,4,5,6-tetrahydro-pyridine-3-carboxylic acid(3,5-dimethyl-phenyl)-amide]
14 | 6.43 | COC(=O)c1ccc(C)c(NC(=O)C2=CNC(=O)CC2c2cccc(F)c2)c1 (centres unmarked) [Compound 16, 3-{[4-(3-Fluoro-phenyl)-6-oxo-1,4,5,6-tetrahydro-pyridine-3-carbonyl]-amino}-4-methyl-benzoic acid methyl ester]
15 | 6.77 | COc1cc(Br)c(NC(=O)C2=CNC(=O)CC2c2cccc(F)c2)cc1OC (centres unmarked) [Compound 17, 4-(3-Fluoro-phenyl)-6-oxo-1,4,5,6-tetrahydro-pyridine-3-carboxylic acid(2-bromo-4,5-dimethoxy-phenyl)-amide]
16 | 6.08 | COc1ccc(Br)c(NC(=O)C2=CNC(=O)CC2c2ccc(F)cc2)c1 (centres unmarked) [Compound 18, 4-(4-Fluoro-phenyl)-6-oxo-1,4,5,6-tetrahydro-pyridine-3-carboxylic acid(2-bromo-5-methoxy-phenyl)-amide]
17 | 6.19 | COc1ccc(Br)c(NC(=O)C2=CNC(=O)CC2c2cccc(F)c2)c1 (centres unmarked) [Compound 19, 4-(3-Fluoro-phenyl)-6-oxo-1,4,5,6-tetrahydro-pyridine-3-carboxylic acid(2-bromo-5-methoxy-phenyl)-amide]
18 | 6.815 | COc1ccc(C)c(NC(=O)C2=CNC(=O)CC2c2cccc(F)c2)c1 (centres unmarked) [Compound 20, 4-(3-Fluoro-phenyl)-6-oxo-1,4,5,6-tetrahydro-pyridine-3-carboxylic acid(5-methoxy-2-methyl-phenyl)-amide]
19 | 6.02 | CC(=O)Nc1ccc(Cl)c(NC(=O)C2=CNC(=O)CC2c2cccc(F)c2)c1 (centres unmarked) [Compound 21, 4-(3-Fluoro-phenyl)-6-oxo-1,4,5,6-tetrahydro-pyridine-3-carboxylic acid(5-acetylamino-2-chloro-phenyl)-amide]
20 | 6.12 | COc1cc(NC(=O)C2=CNC(=O)CC2c2cccc(F)c2)c(Cl)cc1Cl (centres unmarked) [Compound 22, 4-(3-Fluoro-phenyl)-6-oxo-1,4,5,6-tetrahydro-pyridine-3-carboxylic acid(2,4-dichloro-5-methoxy-phenyl)-amide]
21 | 5.92 | COC(=O)c1cc(Br)c(NC(=O)C2=CNC(=O)CC2c2cccc(F)c2)cc1OC (centres unmarked) [Compound 23, 5-Bromo-4-{[4-(3-fluoro-phenyl)-6-oxo-1,4,5,6-tetrahydro-pyridine-3-carbonyl]-amino}-2-methoxy-benzoic acid methyl ester]
22 | 7.69 | COc1cc(C)c(NC(=O)C2=CNC(=O)CC2c2cccc(F)c2)cc1OC (centres unmarked) [Compound 24, 4-(3-Fluoro-phenyl)-6-oxo-1,4,5,6-tetrahydro-pyridine-3-carboxylic acid(4,5-dimethoxy-2-methyl-phenyl)-amide]
23 | 5.395 | O=C1CC(c2cccc(F)c2)C(C(=O)Nc2cc(O)ccc2Cl)=CN1 (centres unmarked) [Compound 25, 4-(3-Fluoro-phenyl)-6-oxo-1,4,5,6-tetrahydro-pyridine-3-carboxylic acid(2-chloro-5-hydroxy-phenyl)-amide]
24 | 5.73 | Cc1ccc(Cl)c(NC(=O)C2=CNC(=O)CC2c2cccc(F)c2)c1F (centres unmarked) [Compound 26, 4-(3-Fluoro-phenyl)-6-oxo-1,4,5,6-tetrahydro-pyridine-3-carboxylic acid(6-chloro-2-fluoro-3-methyl-phenyl)-amide]
25 | 5.18 | O=C1CC(c2cccc(F)c2)C(C(=O)Nc2cc(Cl)ccc2OC(F)F)=CN1 (centres unmarked) [Compound 27, 4-(3-Fluoro-phenyl)-6-oxo-1,4,5,6-tetrahydro-pyridine-3-carboxylic acid(5-chloro-2-difluoromethoxy-phenyl)-amide]
26 | 5.215 | O=C1CC(c2cccc(F)c2)C(C(=O)Nc2c(F)cc(F)cc2Cl)=CN1 (centres unmarked) [Compound 28, 4-(3-Fluoro-phenyl)-6-oxo-1,4,5,6-tetrahydro-pyridine-3-carboxylic acid(2-chloro-4,6-difluoro-phenyl)-amide]
